“Also recorded” adds a separate entry of the source.
Experiments:
patients with ALS [1] = conditions: cited from earlier work; for potency in improving the clinical symptoms or prolonging life: patients with ALS; for beneficial effects in ALS: anecdotal or preliminary observations
patients with ALS [2] = test: Double-blind trial: averaged compound muscle action potential (CMAP) amplitudes in ALS patients, ultra-high versus low dose i.m.; type: in vivo, human
Description: (§1) To develop a symptomatic treatment for amyotrophic lateral sclerosis, I have compared the effects of ultra-high dose and low dose (25 mg/day and 0.5 mg/day, i.m. for 14 days) of methylcobalamin on the averaged compound muscle action potential amplitudes, which serve as an index of muscle power, in a double-blind trial.
(§2) […] were recorded bilaterally from the abductor pollicis brevis, abductor digiti minimi and abductor hallucis muscles after stimulation of the median, ulnar and tibial nerves at the wrist or at the ankle. Amplitudes were measured from the baseline to the negative peak. In each patient, the average amplitude from the six muscles (averaged CMAPs) served as an index of the number of muscle fibers innervated by spinal motoneurons. The method employed was that of Kelly et al.[Muscle Nerve 10, 471-179 (1990)] and Kimura [in Electrodiagnosis in diseases of nerve and muscle: principles and practice, 2nd edition, F. A. Davis ed.(1989), pages 85-87], the disclosures of which are incorporated herein by reference.
(§3) A total of 24 ALS patients without respiratory failure entered the study after giving an informed consent for the protocol approved by the Institutional Review Board. Twelve of them (High Dose Group; age 45-66 years, 5 men) received the ultra-high dose (25 mg/day or 360-610 μg/kg/day, i.m.) methylcobalamin and the other 12 (Low Dose Group; age 41-66 years, 6 men) received the low dose (0.5 mg/day or […],i.m.) as a control. The two groups were matched for age, disease durations (19.6±4.1 versus 21.7±3.2 months) and initial averaged CHAP amplitudes (5.27±0.84 versus 4.48±0.91 mV). The patients were blinded as to the dose. The examiner, who was not informed of the dose, measured CMAPs immediately before starting methylcobalamin (day 1), at the end of 2 weeks of administration (day 14) and at 4 weeks after the start (day 28).

rats = conditions: 0.5, 5.0 and 20.0 mg/kg/day i.p., 30 days; cited from earlier work
[3] = degraded into hydoxycobalamin; cited from earlier work
rat [4] = conditions: 20 mg/kg/day i.p. (organogenesis) or 50 mg/kg i.v. (pre-gestation to postnatal); cited from earlier work
patients with ALS [5] = test: Adverse reactions in ALS patients (clinical trial); type: in vivo, human
Description: as §1, §3

patients with ALS [6] = test: Averaged CMAP amplitudes before and after treatment in ALS patients, 0.5 mg/day i.v., 15 mg/day i.v. and 25 mg/day i.m. groups; type: in vivo, human
Description: as §2
CMAP amplitudes were averaged in 10 patients with ALS treated with a low dose of methycobalamin (0.5 mg/day i.v. for 2 weeks). Those before the treatment and those 2 weeks after the completion of the treatment were compared.
CMAP amplitudes were averaged in 12 patients with ALS treated with a high dose of methylcobalamin (15 mg/day i.v. for 2 weeks). Those before the treatment, those at the end of the treatment and those 2 weeks after the completion of the treatment were compared.
CMAP amplitudes were averaged in 12 patients with ALS treated with an ultra-high dose of methylcobalamin (25 mg/day i.m. for 2 weeks). Those before the treatment, those at the end of the treatment and those 2 weeks after the completion of the treatment were compared.
The ratio of averaged CMAP amplitudes at 2 weeks after the completion of the treatment (after 4 wks) was compared with those before the treatment.

mouse = conditions: 20 mg/kg/day i.p., organogenesis; cited from earlier work
rabbit = conditions: 50 mg/kg/day, organogenesis; cited from earlier work
[7] = intramuscular versus intravenous route; cited from earlier work
patient with ALS = test: Time course of averaged CMAP amplitude in a patient with ALS given 50 mg/day; type: in vivo, human; conditions: day 0 through 13, one patient
Description: as §2
These clinical benefits and improved CMAPs usually lasted for 1-3 months, then followed by deterioration. […] Serial changes of averaged CMAP amplitudes in low dose (0.5 mg/day i.m., n=12) group and high dose (25 mg/day i.m., n=12) group were examined. Methylcobalamin was given during day 0 through day 13. […] The time course of averaged CMAP amplitude changes in a patient with ALS who was given 50 mg/day of methylcobalamin during day 0 day through 13 was examined.

beagles [8] = conditions: 90 days, cited from earlier work
rat [9] = conditions: same doses as subacute, 6 months; cited from earlier work
patients with ALS [10] = test: Clinical symptoms (gait, weakness) and duration of benefit in ALS patients; type: in vivo, human
Description: as §3

beagles [11] = conditions: 50.0 mg/kg/day, 6 months, cited from earlier work
animals = conditions: cited from earlier work
[12] = High Dose Group, 25 mg/day i.m., n=12

## superoxide dismutase
Patients with ALS [1]
  potency in improving the clinical symptoms or prolonging life: not yet convincingly shown their potency

## O=P1(N(CCCl)CCCl)NCCCO1 (stereo not shown) [cyclophosphamide]
Patients with ALS [1]
  beneficial effects in ALS: beneficial effects

## COc1ccc2c(c1)[C@]13CCCC[C@@H]1[C@H](C2)N(C)CC3 [dextromethorphan]
Patients with ALS [1]
  potency in improving the clinical symptoms or prolonging life: not yet convincingly shown their potency

## C/C1=C2/[N-][C@H]([C@H](CC(N)=O)[C@@]2(C)CCC(=O)NC[C@@H](C)OP(=O)([O-])O[C@H]2[C@@H](O)[C@@H](n3cnc4cc(C)c(C)cc43)O[C@@H]2CO)[C@]2(C)N=C(/C(C)=C3N=C(/C=C4N=C1[C@@H](CCC(N)=O)C\4(C)C)[C@@H](CCC(N)=O)[C@]\3(C)CC(N)=O)[C@@H](CCC(N)=O)[C@]2(C)CC(N)=O.[CH3-].[Co+3] [methylcobalamin]
Patients with ALS [2]; 25 mg/day and 0.5 mg/day i.m., n=12 each
  ratio of averaged CMAP amplitude at day 14 or day 28 to that at day 0: only the high dose group showed a significant increase in the ratio at day 28
Patients with ALS [2]; 25 mg/day i.m., at 2 weeks (day 14)
  change in averaged CMAP amplitude: not at 2 weeks
Patients with ALS [2]; 25 mg/day versus 0.5 mg/day i.m.
  CMAP amplitude ratio between day zero and day 28, High Dose versus Low Dose Group: significantly higher ratio than Low Dose Group
Patients with ALS [2]; 15-500 mg/day, i.m., s.c. or i.v. for 14 days, low dose as control (summary statement)
  parameter of muscle power (CMAPs): significantly increases the parameter of muscle power
Patients with ALS [2]; low dose 0.5 mg/day i.m. for 14 days, at 2 or 4 weeks
  change in averaged CMAP amplitude: No significant changes in CMAP amplitude
Patients with ALS [2]; low dose 0.5 mg/day i.m. for 14 days, at 2 or 4 weeks, listed as Methylcobalamin
  change in averaged CMAP amplitude: no significant changes in CMAP amplitude
Patients with ALS [2]; ultra-high dose 25 mg/day i.m. for 14 days, at 4 weeks (day 28)
  change in averaged CMAP amplitude: significant increase at 4 weeks; also recorded: increase of averaged CMAP amplitudes at day 28
Patients with ALS [2]; ultra-high dose 25 mg/day i.m. for 14 days, at 4 weeks (day 28), listed as Methylcobalamin
  change in averaged CMAP amplitude: significant increase at 4 weeks
rats
  general conditions, body weight, blood and urine chemistry, organ weights and histological findings: no significant changes in the general conditions, body weight, blood and urine chemistry, organ weights and histological findings
[3]
  light sensitivity: light-sensitive, and is easily degraded into hydoxycobalamin
Rat [4]
  changes in the embryo, the fetus or the neonate: no significant changes in the embryo, the fetus or the neonate
Patients with ALS [5]; [12]
  adverse reactions: elevation of serum GOT and GPT: mild elevation of serum GOT and GPT in another
  adverse reactions: skin rash: skin rash in one patient
Patients with ALS [5]; High Dose Group, 25 mg/day i.m., both
  duration of adverse reactions (skin rash; GOT/GPT elevation): about a week
Patients with ALS [5]; clinical trial, 25 mg/day and 0.5 mg/day i.m. for 14 days
  major side effects: No major side effects were seen
Patients with ALS [6]; 0.5 mg/day i.v. for 2 weeks, 10 patients, 2 weeks after completion vs before
  change in averaged CMAP amplitude: No significant changes were found
Patients with ALS [6]; 15 mg/day i.v. for 2 weeks, 12 patients, before, end, 2 weeks after completion
  change in averaged CMAP amplitude: tendency toward increase of CMAPs at 2 weeks after the completion of the treatment, no statistically significant differences were found
Patients with ALS [6]; 25 mg/day i.m. for 2 weeks, 12 patients, 2 weeks after completion
  change in averaged CMAP amplitude: statistically significant increase of CMAPs at 2 weeks after the completion of the treatment
Patients with ALS [6]; 25 mg/day i.m. versus 0.5 mg/day i.v., 2 weeks, FIG. 1
  ratio of averaged CMAP amplitudes 2 weeks after completion to before treatment, ultra-high versus low dose group: statistically significant difference
Patients with ALS [6]; 25 mg/day i.m. versus 0.5 mg/day i.v., unpaired t-test
  p value, ratio of averaged CMAP amplitudes between groups: < 0.05
mouse
  changes in the embryo, the fetus or the neonate: no significant changes in the embryo, the fetus or the neonate
rabbit
  changes in the embryo, the fetus or the neonate: no significant changes in the embryo, the fetus or the neonate
[7]
  half life in the blood level: longer half life in the blood level
Patient with ALS
  time course of averaged CMAP amplitude: abrupt increase of the amplitude during and after the treatment
Beagles [8]; 50.0 mg/kg/day i.v., a dog
  epididymis findings: No changes were noted in the epidydimis
  histological finding in the kidney: increased eosinophilic granules in the proximal tubules in the kidney
Beagles [8]; 0.5, 5.0 and 50.0 mg/kg/day i.v.
  subacute toxicity findings: normal findings
Rat [9]
  chronic toxicity findings: No significant changes were found
Patients with ALS [10]; 15-500 mg/day, i.m., s.c. or i.v. for 14 days (summary statement)
  subjective weakness: improves the subjective weakness
Patients with ALS [10]; [12]
  improvement in gait and weakness: Two patients in High Dose Group noted an improvement in gait and weakness
Patients with ALS [10]; High Dose Group, 25 mg/day i.m., then followed by deterioration
  duration of clinical benefits and improved CMAPs: 1-3 months
Patients with ALS [10]; ultra-high dose, ALS patients
  improvement of clinical symptoms and objective clinical measure: improvement of both clinical symptoms and an objective clinical measure
Beagles [11]
  Kupffer cells in the liver: increased number of Kuppfer cells in the liver
  lysosomes, electron microscopy: increase in lysosomes
  mesangial cells in the renal glomeruli: lysosomal increase in the mesangeal cells in the renal glomeruli
Beagles [11]; only this dose
  kidney proximal tubules, light microscopy: increased eosinophilic granules in the proximal tubules in the kidney
animals; 50 mg/kg/day, animals
  major side effects: no major side effects have been observed
animals; 50 mg/kg/day, on rare occasions
  edema and redness of the skin: transient edema and redness of the skin
animals; disappears after discontinuing the administration
  red urine: Red urine may be found, but it soon disappears

## IGF-1: insulin-like growth factor-1
Patients with ALS [1]
  beneficial effects in ALS: beneficial effects

## vitamin E
Patients with ALS [1]
  potency in improving the clinical symptoms or prolonging life: not yet convincingly shown their potency

## Nc1nc2ccc(OC(F)(F)F)cc2s1 [riluzole]
Patients with ALS [1]; a subgroup of ALS
  prolongation of life without tracheostomy: 1-3 months

B1: ciliary neurotrophic factor: ciliary neurotrophic factor (protein, UniProt P26441 1-200, looked up)
Ciliary neurotrophic factor: MAFTEHSPLTPHRRDLCSRSIWLARKIRSDLTALTESYVKHQGLNKNINLDSADGMPVASTDQWSELTEAERLQENLQAYRTFHVLLARLLEDQQVHFTPTEGDFHQAIHTLLLQVAAFAYQIEELMILLEYKIPRNEADGMPINVGDGGLFEKKLWGLKVLQELSQWTVRSIHDLRFISSHQTGIPARGSHYIANNKKM
Patients with ALS [1]
  potency in improving the clinical symptoms or prolonging life: not yet convincingly shown their potency

Source: patent US5964224A, “Method for treating amyotrophic lateral sclerosis and a therapeutic agent therefor” (priority 1997, dated 1999)
